Source: patent US11713338B2, “Cyclic peptides multimers targeting α-4-β-7 integrin” (priority 2016, dated 2023)

Target: T1, integrin α4β7 on α4β7+ memory T helper cells (Homo sapiens, UniProt P13612+P26010)
T1 construct: endogenous in cells
T1 sequence (P13612 34-1032): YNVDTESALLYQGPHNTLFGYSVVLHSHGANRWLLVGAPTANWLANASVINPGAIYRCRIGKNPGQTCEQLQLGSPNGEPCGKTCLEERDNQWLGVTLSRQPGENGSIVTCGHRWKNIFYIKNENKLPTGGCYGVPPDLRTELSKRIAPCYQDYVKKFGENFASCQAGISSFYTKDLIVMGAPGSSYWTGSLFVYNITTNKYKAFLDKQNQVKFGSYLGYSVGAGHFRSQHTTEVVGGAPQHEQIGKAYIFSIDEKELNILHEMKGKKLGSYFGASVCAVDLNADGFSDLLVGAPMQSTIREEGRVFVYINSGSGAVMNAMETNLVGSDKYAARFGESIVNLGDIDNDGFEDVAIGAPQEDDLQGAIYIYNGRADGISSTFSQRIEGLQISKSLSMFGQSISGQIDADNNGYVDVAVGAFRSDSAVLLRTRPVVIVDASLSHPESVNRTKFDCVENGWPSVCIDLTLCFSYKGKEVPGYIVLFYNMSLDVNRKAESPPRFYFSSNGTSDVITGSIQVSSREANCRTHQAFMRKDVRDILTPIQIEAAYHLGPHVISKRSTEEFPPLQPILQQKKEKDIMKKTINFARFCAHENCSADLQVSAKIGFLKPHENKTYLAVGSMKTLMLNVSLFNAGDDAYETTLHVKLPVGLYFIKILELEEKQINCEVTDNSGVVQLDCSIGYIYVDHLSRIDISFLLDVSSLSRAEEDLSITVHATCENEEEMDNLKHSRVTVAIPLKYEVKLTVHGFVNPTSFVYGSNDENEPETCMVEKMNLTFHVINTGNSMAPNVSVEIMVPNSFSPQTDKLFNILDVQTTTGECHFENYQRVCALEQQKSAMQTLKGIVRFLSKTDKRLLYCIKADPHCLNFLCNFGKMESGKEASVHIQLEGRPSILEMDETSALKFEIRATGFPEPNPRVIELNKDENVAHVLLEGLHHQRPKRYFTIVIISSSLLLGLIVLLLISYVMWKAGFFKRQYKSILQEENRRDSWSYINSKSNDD
T1 sequence (P26010 20-798): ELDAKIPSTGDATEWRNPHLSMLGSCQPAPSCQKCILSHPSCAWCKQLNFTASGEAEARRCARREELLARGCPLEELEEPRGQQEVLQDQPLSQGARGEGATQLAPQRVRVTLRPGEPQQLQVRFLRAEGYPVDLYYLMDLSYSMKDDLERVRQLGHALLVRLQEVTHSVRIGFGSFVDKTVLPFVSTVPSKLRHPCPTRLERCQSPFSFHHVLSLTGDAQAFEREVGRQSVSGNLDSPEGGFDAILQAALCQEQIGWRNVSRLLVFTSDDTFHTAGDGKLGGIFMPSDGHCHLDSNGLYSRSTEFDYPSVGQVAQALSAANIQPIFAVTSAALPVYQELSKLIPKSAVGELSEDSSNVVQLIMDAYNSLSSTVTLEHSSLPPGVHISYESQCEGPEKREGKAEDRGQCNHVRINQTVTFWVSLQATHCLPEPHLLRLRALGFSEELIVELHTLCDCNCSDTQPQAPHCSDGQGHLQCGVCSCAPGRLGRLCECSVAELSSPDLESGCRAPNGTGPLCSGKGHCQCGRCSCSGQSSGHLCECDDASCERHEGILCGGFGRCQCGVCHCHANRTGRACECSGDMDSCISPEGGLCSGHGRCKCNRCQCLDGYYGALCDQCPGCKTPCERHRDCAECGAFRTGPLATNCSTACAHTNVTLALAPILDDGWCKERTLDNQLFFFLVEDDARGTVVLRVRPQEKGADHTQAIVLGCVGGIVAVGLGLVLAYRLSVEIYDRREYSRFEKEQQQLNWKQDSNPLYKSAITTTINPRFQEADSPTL
Assay: MAdCAM-1 competition / receptor occupancy assay in human whole blood, α4β7-positive Th memory cells
Assay type: cell-based
Details: human whole blood, inhibition of MAdCAM-1 binding to α4β7-positive Th memory cells, FACS; read-out: MADCAM FACS α4β7 Th mem
Method in brief: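 Human heparinised whole blood; saturating biotinylated rhMAdCAM-1-Fc or rhVCAM-1-Fc bound 1 h at RT, stained in buffer with 4 mM MnCl2, detected by streptavidin-APC flow cytometry on gated CD45+CD3+CD4+CD45RO+CD49d+ β7+ or β7-lo cells. Occupancy = 100−((% ligand-positive cells with compound/% ligand-positive cells DMSO)*100).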

Structure (SMILES)	IC50
CC(C)C[C@@H]1NC(=O)c2ccc(-c3ccc(N4CCN(C(=O)C5(C(=O)N6CCN(c7ccc(-c8ccc9cc8CNC(=O)[C@@H]8CCCN8[C@H](C(=O)NC(C)(C)C)[C@H](C)NC(=O)[C@H]([C@@H](C)O)NC(=O)[C@H](CC(=O)O)NC(=O)[C@H](CC(C)C)NC9=O)cc7)CC6)Cc6ccccc6C5)CC4)cc3)c(c2)CNC(=O)[C@@H]2CCCN2[C@H](C(=O)NC(C)(C)C)[C@H](C)NC(=O)[C@H]([C@@H](C)O)NC(=O)[C@H](CC(=O)O)NC1=O [Compound 461]	0.093 µM
CC(C)C[C@@H]1NC(=O)C[C@H](CCCCN)N(C)C(=O)[C@H](CCCCNC(=O)CCOCCOCCOCCOCCOCCOCCOCCC(=O)NCCCC[C@@H]2NC(=O)[C@@H]3CCCN3[C@H](C(=O)NC(C)(C)C)[C@H](C)NC(=O)[C@H]([C@@H](C)O)NC(=O)[C@H](CC(=O)O)NC(=O)[C@H](CC(C)C)NC(=O)C[C@H](CCCCN)N(C)C2=O)NC(=O)[C@@H]2CCCN2[C@H](C(=O)NC(C)(C)C)[C@H](C)NC(=O)[C@H]([C@@H](C)O)NC(=O)[C@H](CC(=O)O)NC1=O [Compound 536]	0.075 µM
